Experimental findings from PubChem BioAssay AID488890 (Southern Research Specialized Biocontainment Screening …, 2010) are described below.

The experiment deals with Mycobacterium tuberculosis non-replicating, growth inhibition. Briefly: growth inhibition of non-replicating M. tuberculosis (AID 488890).

Results filed as inconclusive are left out. Activity calls are given as the source filed them. No rule for the calls is given here.

Regarding `O=C(COC(=O)c1ccc([N+](=O)[O-])s1)Nc1ccc(Cl)cn1`, the IC50 is 2.37 µM. As to `Cc1ccc(N=Nc2c(C)[nH]n(C(N)=S)c2=O)cc1`, the IC50 is 2.35 µM. Turning to `Cc1ccc(/C=C2\SC(N3CCCC3)=NC2=O)cc1`, the IC50 is 6.15 µM. `CC/C(=C\C=C\[C@@H]1C=C[C@@H]2CCC[C@H]2[C@@H]1C(=O)c1ccc[nH]1)[C@@H]1O[C@@H]([C@@H](C)C(=O)O)CC[C@@H]1C`: the IC50 was 3.28 µM. As for `Cn1cnc([N+](=O)[O-])c1Sc1ccc(Br)cc1`, the IC50 is 23.6 µM (inactive). On to `N=C1S/C(=C\c2ccco2)C(=O)N1c1nccs1`, for which the IC50 was 3.04 µM. Consider `O=C(Nc1ccccc1C(=O)Nc1nnc(C(F)(F)F)s1)c1ccccc1`, for which the IC50 was 1.27 µM. Under `CCOc1ccccc1NC(=O)COn1nnc2ccc(Cl)cc21` stands 10.5 µM (inactive). In the case of `N/N=C(/Cc1nc2ccccc2[nH]1)c1ccc([N+](=O)[O-])cc1`, the IC50 was 1.06 µM. Regarding `N#Cc1ccc(COC(=O)CCc2c[nH]c3ccccc23)cc1`, the IC50 was 4.68 µM. Under `O=C(O)c1[nH]c(=O)[nH]c(=O)c1F` stands 5.7 µM; under `COc1cccc(C(=O)OCC(=O)Nc2nnc(-c3ccccc3)o2)c1`, 22.8 µM (inactive). Under `CC(C)Cc1cc(C(=O)Nc2ccc(F)cc2F)no1` stands 2.34 µM; under `CNc1nnc(Sc2ncccc2[N+](=O)[O-])s1`, 5.8 µM; under `O=C(CCc1c[nH]c2ccccc12)Nc1ncccc1O`, 15.1 µM (inactive).

Usually IC50 stands for the concentration that gives 50% inhibition.
